# Laboratory results as given in patent US9976170B2, “Method for evaluating bacterial cell wall integrity” (UNIVERSIDAD AUTONOMA DE MADRID, priority 2011, dated 2018).
# Read-outs that look alike come from different tables or passages of the source.
# Assays:
# Assay type in all cases: cell-based
# [1] = system: Enterococcus faecalis, ampicillin-sensitive and benzylpenicillin-resistant strain; assay: technique for evaluating cell wall integrity (lysis solution, nucleoid release, fluorescence microscopy); conditions: 60 minutes
# Procedure: (§1) Different bacterial strains grown on a dish with Mueller-Hinton medium for 24 hours were subsequently exposed to a β-lactam antibiotic for 60 minutes in Mueller-Hinton liquid medium at 37° C., under stirring, and were finally processed by means of the technique for evaluating cell wall integrity according to the present invention.
# (§2) The doses of antibiotic applied were 0, the MIC determined in the Microbiology Laboratory by means of the microdilution and/or E-test technique, and those of the cutoff points of sensitivity and resistance indicated by the Clinical and Laboratory Standards Institute (CLSI) for each strain. A dose 10 times higher than the MIC was also used.
# [2] = system: Enterococcus faecium, ampicillin- and benzylpenicillin-resistant strain; assay: as above; conditions: 320 μg/mL, 60 minutes
# Procedure: as §1, §2
# [3] = system: Enterococcus faecalis, ampicillin-sensitive and benzylpenicillin-resistant strain; assay: MIC by microdilution and/or E-test
# Text: (§3) The strains and the antibiotics used were: • Gram+ • Enterococcus faecalis.
# as §2
# [4] = system: Enterococcus faecium, ampicillin- and benzylpenicillin-resistant strain; assay: MIC by microdilution and/or E-test
# Text: as §3, §2
# [5] = system: Escherichia coli, ampicillin- and ceftazidime-resistant strain; assay: technique for evaluating cell wall integrity (lysis solution, nucleoid release, fluorescence microscopy); conditions: 60 minutes
# Procedure: as §1, §2
# [6] = system: Escherichia coli, ceftazidime-sensitive strain with intermediate sensitivity to ampicillin; assay: as above; conditions: 60 minutes
# Procedure: as §1, §2
# [7] = system: Acinetobacter baumannii, imipenem-sensitive strain with intermediate sensitivity to ceftazidime; assay: as above; conditions: 60 minutes
# Procedure: as §1, §2
# [8] = system: Acinetobacter baumannii, imipenem- and ceftazidime-resistant strain; assay: as above; conditions: 60 minutes
# Procedure: as §1, §2
# [9] = system: Escherichia coli, ampicillin- and ceftazidime-resistant strain; assay: MIC by microdilution and/or E-test
# Text: as §3, §2
# [10] = system: Escherichia coli, ceftazidime-sensitive strain with intermediate sensitivity to ampicillin; assay: MIC by microdilution and/or E-test
# Text: as §3, §2
# [11] = system: Acinetobacter baumannii, imipenem-sensitive strain with intermediate sensitivity to ceftazidime; assay: MIC by microdilution and/or E-test
# Text: as §3, §2
# [12] = system: Acinetobacter baumannii, imipenem- and ceftazidime-resistant strain; assay: MIC by microdilution and/or E-test
# Text: as §3, §2
# [13] = system: 11 different strains of E. coli isolated in a Microbiology Service; assay: technique for evaluating cell wall integrity on hospital isolates; conditions: of 11 strains, 1 hour
# Procedure: Following the results of the preceding experiment (Example 1), 11 different strains of E. coli isolated in a Microbiology Service were studied. After growing on a dish with Mueller-Hinton medium for 24 hours, they were exposed to amoxicilin together with clavulanic acid in Mueller-Hinton liquid medium for 1 hour, after which they were processed by means of the technique for evaluating cell wall integrity according to the present invention.
# [14] = system: sensitive strain of E. coli; assay: background of extracellular DNA fragments, processed without the step of lysis (FIG. 8); conditions: 40 minutes, after 24 hours on a dish
# Procedure: The strains were processed without the step of lysis by exposure to the lysis solution.
# The liquid with the cells is included in an agarose microgel which is dehydrated in alcohols and/or air dried or dried in an oven and stained with fluorochrome. It is the same process described in detail above, but without incubation with lysis solution. The background can be evaluated rapidly after 15-20 minutes that it takes to perform the technique. The preparations are permanent.
# [15] = system: strain of Escherichia coli with intermediate sensitivity; assay: technique for evaluating cell wall integrity, Examples 1 and 3; conditions: for incubation time at which a clear effect started to show: only after high dose (32/16)
# Text: (§4) Three different strains of Escherichia coli were exposed to the β-lactam antibiotic, amoxicilin, together with the β-lactamase inhibitor, clavulanic acid, and processed by means of the technique for evaluating cell wall integrity of the present invention. […] The doses of antibiotic were chosen according to the cutoff points indicated by the Clinical and Laboratory Standards Institute (CLSI). […] According to the disc diffusion data, one of the strains is a sensitive strain, another strain is a strain with intermediate sensitivity and the remaining strain is a resistant strain.
# (§5) A sensitive strain, a strain with intermediate sensitivity and another resistant strain of E. coli were exposed to amoxicilin together with clavulanic acid in Mueller-Hinton liquid medium and processed by means of the technique for evaluating cell wall integrity of the present invention. […] The incubation times with the antibiotic were 5, 10, 20, 30, 40, 60 and 75 minutes.
# [16] = system: sensitive strain of Escherichia coli; assay: as above; conditions: for lysis of the bacteria, showing the nucleoids: exponential liquid culture
# Text: as §4, §5
# [17] = system: resistant strain of Escherichia coli; assay: as above
# Text: as §4, §5
# [18] = system: amoxicilin/clavulanic acid-sensitive E. coli strain
# Procedure: The liquid with the cells is included in an agarose microgel which is dehydrated in alcohols and/or air dried or dried in an oven and stained with fluorochrome. It is the same process described in detail above, but without incubation with lysis solution.
# [19] = dose 32/16, 40 minutes, exponential liquid culture
# [20] = low dose (8/4), bacteria from 24-hour dish culture
# [21] = 32/16, 15 minutes of incubation
compound,measurement,setting,value
CC1(C)S[C@@H]2[C@H](NC(=O)Cc3ccccc3)C(=O)N2[C@H]1C(=O)O [benzylpenicillin],background of extracellular DNA fragments,[1]; 16 μg/mL,some background
same,cells not lysed,[1]; 16 μg/mL,81%
same,lysed cells with a large halo,[1]; 16 μg/mL,4.5%
same,cells lysed with nucleoid with fragmented DNA,[1]; 32 μg/mL,4%
same,cells not lysed,[1]; 32 μg/mL,65%
same,cells with a large halo,[1]; 32 μg/mL,4%
same,cells with a small halo,[1]; 320 μg/mL,25%
same,non-lysed cells,[1]; 320 μg/mL,72.3%
same,empty faint capsules,"[1]; 16, 32 and 320 μg/mL",0.5-1.5%
same,background of extracellular DNA fragments,[2],no background
same,heavily lysed cells,[2],5%
same,MIC,[3],> 32 mg/L
same,MIC,[4],> 32 mg/L
CC(C)(O/N=C(\C(=O)N[C@@H]1C(=O)N2C(C(=O)[O-])=C(C[n+]3ccccc3)CS[C@H]12)c1csc(N)n1)C(=O)O [ceftazidime],filamentous cells,[5]; 8 μg/mL,13%
same,well lysed cells,[5]; 8 μg/mL,1%
same,background of extracellular DNA fragments,[5]; 20 μg/mL,without background
same,filamentous cells,[5]; 20 μg/mL,99%
same,non-lysed cells,[5]; 20 μg/mL,94%
same,well lysed cells,[5]; 20 μg/mL,5%
same,background of extracellular DNA fragments,[5]; 32 μg/mL (MIC),subtle background
same,empty capsules,[5]; 32 μg/mL (MIC),1%
same,filamentous cells,[5]; 32 μg/mL (MIC),98%
same,lysed cells with nucleoid with fragmented DNA,[5]; 32 μg/mL (MIC),3%
same,non-lysed cells,[5]; 32 μg/mL (MIC),92%
same,well lysed cells,[5]; 32 μg/mL (MIC),4%
same,background of extracellular DNA fragments,[5]; 320 μg/mL,subtle background
same,cells lysed with nucleoid with fragmented DNA,[5]; 320 μg/mL,0.5%
same,filamentous cells,[5]; 320 μg/mL,99%
same,heavily lysed cells,[5]; 320 μg/mL,3.5%
same,moderately lysed cells,[5]; 320 μg/mL,95%
same,non-lysed cells,[5]; 320 μg/mL,1%
same,background of extracellular DNA fragments,[6]; 1 μg/mL (MIC),some background
same,filamentous cells,[6]; 1 μg/mL (MIC),99%
same,heavily lysed cells,[6]; 1 μg/mL (MIC),97%
same,background of extracellular DNA fragments,[6]; 8 μg/mL,more background
same,background of extracellular DNA fragments,[6]; 10 μg/mL,extensive background
same,empty capsules,[6]; 10 μg/mL,10.5%
same,lysed cells with nucleoid with fragmented DNA,[6]; 10 μg/mL,11%
same,well lysed cells,[6]; 10 μg/mL,76.5%
same,empty capsules,[6]; 20 and 32 μg/mL,25.3%
same,lysed cells with nucleoid with fragmented DNA,[6]; 20 and 32 μg/mL,20%
same,non-lysed cells,[6]; 20 and 32 μg/mL,2%
same,well lysed cells,[6]; 20 and 32 μg/mL,52.7%
same,background of extracellular DNA fragments,[7]; 8 μg/mL,without background
same,filamentous cells,[7]; 8 μg/mL,82%
same,lysed cells with a small halo,[7]; 8 μg/mL,40%
same,lysed cells with nucleoid with fragmented DNA,[7]; 8 μg/mL,1%
same,filamentous cells,[7]; 12 μg/mL (MIC) and 20 μg/mL,95%
same,background of extracellular DNA fragments,[7]; 12 μg/mL (MIC),subtle background
same,lysed cells with a large halo,[7]; 12 μg/mL (MIC),1.5%
same,lysed cells with a small halo,[7]; 12 μg/mL (MIC),94.5%
same,non-lysed cells,[7]; 12 μg/mL (MIC),4%
same,lysed cells with a large halo,[7]; 20 μg/mL,3%
same,lysed cells with a small halo,[7]; 20 μg/mL,91.5%
same,non-lysed cells,[7]; 20 μg/mL,5.5%
same,background of extracellular DNA fragments,[7]; 32 μg/mL,more background
same,elongated cells,[7]; 32 μg/mL,90%
same,lysed cells with a large halo,[7]; 32 μg/mL,6%
same,lysed cells with a small halo,[7]; 32 μg/mL,88%
same,non-lysed cells,[7]; 32 μg/mL,6%
same,background of extracellular DNA fragments,[7]; 120 μg/mL,extensive background
same,filamentous cells,[7]; 120 μg/mL,91%
same,lysed cells with a large halo,[7]; 120 μg/mL,23%
same,lysed cells with a small halo,[7]; 120 μg/mL,67%
same,lysed cells with nucleoid with fragmented DNA,[7]; 120 μg/mL,36%
same,non-lysed cells,[7]; 120 μg/mL,7%
same,background of extracellular DNA fragments,[8]; 2.560 μg/mL,same background persists
same,cells lysed with nucleoids with fragmented DNA,[8]; 2.560 μg/mL,25%
same,cells not lysed,[8]; 2.560 μg/mL,5%
same,cells with a large halo,[8]; 2.560 μg/mL,63.5%
same,cells with a small halo,[8]; 2.560 μg/mL,6.5%
same,very elongated and filamentous cells,[8]; 8 μg/mL,22%
same,background of extracellular DNA fragments,[8]; 256 μg/mL,subtle background
same,cells not lysed,[8]; 256 μg/mL,4.7%
same,cells with a small halo,[8]; 256 μg/mL,63%
same,heavily lysed cells,[8]; 256 μg/mL,32.3%
same,background of extracellular DNA fragments,[8]; 20 and 32 μg/mL,without background
same,cells with a large halo,[8]; 20 and 32 μg/mL,1.5%
same,cells with a small halo,[8]; 20 and 32 μg/mL,84.5%
same,filamentous cells,"[8]; subsequent doses (20, 32, 256, 2.560 μg/mL)",90%
same,MIC,[9],32 mg/L
same,MIC,[10],1 mg/L
same,MIC,[11],12 mg/L
same,MIC,[12],> 32 mg/L
amoxicilin/clavulanic acid,"strains with complete wall lysis and intense background even at low dose (8/4), categorized as sensitive",[13],Three
same,"strains with complete wall lysis and intense background only at high dose (32/16), intermediate sensitivity",[13],5
same,"strains with non-lysed and moderately lysed cells, very faint or no background at high dose, categorized as resistant",[13],Two
same,"background of extracellular DNA fragments, without lysis",[14]; high dose (32/16),increases significantly
same,"background of extracellular DNA fragments, without lysis",[14]; low dose (8/4),evident
same,"lysis of the bacteria, showing the nucleoids",[15]; [19],lysed
same,incubation time at which a clear effect started to show,[15]; bacteria from 24-hour dish culture,60 min
same,incubation time at which a clear effect started to show,[15]; liquid culture in exponential growth phase,30 to 40 min
same,"lysis of the bacteria, showing the nucleoids","[16]; dose 8/4 (8 μg/mL amoxicilin, 4 μg/mL clavulanic acid), 40 minutes",lysed
same,"lysis of the bacteria, showing the nucleoids","[16]; dose 32/16, 40 minutes",lysed
same,"incubation time after which an effect (background, subtle cell lysis) started to be seen","[16]; high dose (32/16), bacteria from 24-hour dish culture",20 min
same,incubation time after which an effect started to be observed,"[16]; low (8/4) and high (32/16) dose, liquid culture in exponential growth phase",10 min
same,incubation time after which the subtle effect was observed,[16]; [20],40 min
same,incubation time at which the effect became maximum (lysis of virtually all cells),[16]; [20],60 min
same,effect on the wall,"[17]; 8/4 and 32/16, liquid culture in exponential growth phase",did not show any effect at all
same,effect on the wall,"[17]; 8/4 and 32/16, up to 75 minutes, bacteria from 24-hour dish culture",did not show any effect at all
same,"lysis of the bacteria, showing the nucleoids",[17]; [19],not lysed
same,"background of extracellular DNA fragments, without lysis",[18]; [21],very clear background
same,"cells per mL, measured by Neubauer chamber",[18]; [21],42.5 million of cells per mL
same,OD 600,"[18]; 32/16, 15 minutes of incubation, starting OD 600 0.07",0.071
same,OD 600,"[18]; 32/16, 2 hours of incubation",0.033
same,cells per mL,"[18]; 32/16, 2 hours of incubation",14.5 million of cells per mL
same,OD 600,"[18]; 32/16, 3 hours",0.037
same,OD 600,"[18]; 32/16, 4 hours",0.033
same,OD 600,"[18]; 32/16, 6 hours",0.035
same,cells per mL,"[18]; 32/16, 6 hours",13.5 million of cells per mL
same,"background of extracellular DNA fragments, without lysis","[18]; 32/16, after 3 and 4 hours",poor
same,"background of extracellular DNA fragments, without lysis","[18]; 32/16, after 6 hours",no longer observed
same,cells per mL,"[18]; 32/16, at both 3 and 4 hours",14 million of cells per mL
same,"background of extracellular DNA fragments, without lysis","[18]; 32/16, up to 2 hours of incubation",remains intense
C[C@@H](O)[C@H]1C(=O)N2C(C(=O)O)=C(SCCN=CN)C[C@H]12 [imipenem],cells with a large halo,[7]; 4 μg/mL,13.5%
same,faint empty capsules,[7]; 4 μg/mL,12%
same,lysed cells with nucleoid with fragmented DNA,[7]; 4 μg/mL,66%
same,non-lysed cells,[7]; 4 μg/mL,8.5%
same,cells with a large halo,[7]; 8 μg/mL,6%
same,faint empty capsules,[7]; 8 μg/mL,19.5%
same,lysed cells with nucleoid with fragmented DNA,[7]; 8 μg/mL,69.5%
same,non-lysed cells,[7]; 8 μg/mL,5%
same,cells with a large halo,[7]; 16 μg/mL,5%
same,faint empty capsules,[7]; 16 μg/mL,15%
same,lysed cells with nucleoid with fragmented DNA,[7]; 16 μg/mL,73.5%
same,non-lysed cells,[7]; 16 μg/mL,6.5%
same,cells with a large halo,[8]; 16 μg/mL,1%
same,cells with a small halo,[8]; 16 μg/mL,1%
same,lysed cells with nucleoid with fragmented DNA,[8]; 16 μg/mL,0.5%
same,cells not lysed,[8]; 320 μg/mL,92%
same,heavily lysed cells,[8]; 320 μg/mL,3.5%
same,lysed cells with a small halo,[8]; 320 μg/mL,2.5%
same,lysed cells with nucleoid with fragmented DNA,[8]; 320 μg/mL,2%
same,MIC,[11],0.38 mg/L
same,MIC,[12],> 32 mg/L
